In test [1] the test system is M. smithii strains DSMZ 861 (PS), 2374 (F1), 2375 (ALI) and 11975 (B181). As to the kind of experiment: Statin susceptibility of M. smithii strains in the PHAT system, 96-well plates, growth by optical density at 600 nm (all four strains). The test is classed as cell-based, Methanobrevibacter smithii. To be noted: preliminary results. Here is the method: A system for culturing M. smithii in 96-well plate format was designed and constructed in the following manner (See FIG. 15). Three stainless steel paint canisters (Binks, 83S-210, 2 gallon size) were modified for incubation of plates at 37° C. in an oxygen-free gas mix of 20% CO2/80% H2 at a pressure of 30 psi, where all of these growth parameters can be monitored and recorded.
The canisters are heated using Electro-Flex Heat brand Pail Heaters controlled by a custom designed controller consisting of a 16A2120 temperature/process control (Love Controls), an RTD (resistance temperature detector) probe to measure internal tank temperature, and several safety features to prevent overheating or burns.
The system is pressurized with oxygen-free gas that has flowed through a custom-built oxygen scrub. Commercially available gas mixes used for culturing M. smithii contain trace levels of oxygen that would kill the organism: thus, the gas mixture must be passed through an oxygen scrub. This scrub consists of a glass tube filled with copper mesh that is heated to 350° C. with heating tape (HTS/Amptek Duo-Tape), controlled by a benchtop power controller (HTS/Amptek BT-Z). The oxygen scrub is covered with insulating tape and secured behind a heat resistant polyetherimide case. Pressure in each tank is measured and recorded with a digital manometer (LEO record, Omni Instruments).
The system is housed inside an anaerobic chamber (COY laboratories) to allow inspection and manipulation of cultures and plates without exposing M. smithii to oxygen. Each tank can house 30 standard volume 96-well plates, which can be analyzed inside the COY anaerobic chamber with a microplate reader (BioRad) that monitors growth by measuring optical density.
1.5 μl of the stock solutions were added to wells in 96-well plates and transferred to the COY anaerobic chamber where they were kept for at least 24 hours to become anaerobic. 150 microliters of actively growing Methanobrevibacter smithii cultures were then added to each well (excluding medium+drug blanks) to bring the drug concentrations to 1 mM, 100 μM and 10 μM, respectively. The plates were incubated in the newly developed pressurized heated anaerobic tank system in a 4:1 mixture of oxygen-scrubbed H2 and CO2 at a pressure of 30 psi. Cultures grown in 1% ethanol, methanol and DMSO were used as controls. Growth was measured by determining optical density at 600 nm using the BioRad microplate reader (model 680).
Each condition was tested in triplicate with the average measurement plotted.

For test [2], the system named is Bacteroides thetaiotaomicron. In words: Effect of statins on growth of B. thetaiotaomicron (FIG. 14). The test is classed as cell-based. To be noted: statin concentration of 1 mM (FIG. 14).

Each structure is given as a SMILES string.

As for `CC(C)c1c(C(=O)Nc2ccccc2)c(-c2ccccc2)c(-c2ccc(F)cc2)n1CC[C@@H](O)C[C@@H](O)CC(=O)O` [atorvastatin], the “inhibition of growth of M. smithii strains” value in test [1] (1 millimolar) is on record as “inhibit all strains tested”; in test [1] (100 micromolar), “inhibit all strains”. In addition, the “effect on the growth of Bacteroides thetaiotaomicron” value in test [2] is “None of these three statins had any affect on the growth”.

As for `CC(C)c1nc(N(C)S(C)(=O)=O)nc(-c2ccc(F)cc2)c1/C=C/[C@@H](O)C[C@@H](O)CC(=O)O` [rosuvastatin], the “inhibition of growth of M. smithii strains” value in test [1] (1 millimolar) is given as “inhibit all strains tested”; in test [1] (100 micromolar), “inhibit all strains”. Besides, the “effect on the growth of Bacteroides thetaiotaomicron” value in test [2] is reported as “None of these three statins had any affect on the growth”.

The values are drawn from US20130217592A1, “ARRAYS AND METHODS COMPRISING M. SMITHII GENE PRODUCTS” (THE WASHINGTON UNIVERSITY, priority 2007, published 2013).
